{
  "source": "patent US11826373B2",
  "about": "“Methods for treatment of diseases” (Galera Labs, LLC, priority 2011, dated 2023)",
  "data": [
    {"assay": "Activity toward hydrogen peroxide", "assay_type": "biochemical", "values": [
      {"compound": "manganese [III] tetrakis-(5,10,15,20)-benzoic acid porphyrin [MnTBAP]", "activity toward hydrogen peroxide": "significant activity"},
      {"compound": "CC(C)c1cc(C(=O)O)c([O-])c(C(C)C)c1.CC(C)c1cc(C(=O)O)c([O-])c(C(C)C)c1.[Cu+2]", "note": "[CuDIPS, copper [II] diisopropylsalicylate]", "activity toward hydrogen peroxide": "significant activity"},
      {"compound": "mangafodipir", "activity toward hydrogen peroxide": "significant activity"}
    ]}
  ]
}
